Measured values as given in DBAASP.
Converted amounts (≈) assume the structure as drawn. “And” between values parts separate entries of the source, which are not always exact repeats. Equal values may be shown once.

Columns and labels:
Assay in all cases: ≥ marks a high value that may be exact or a test limit, other limits are often not marked, values filed in µg/mL are converted to µM
[1] = test system: Escherichia coli DH5alpha
[2] = test system: Escherichia coli ATCC 10536
[3] = test system: Staphylococcus aureus ATCC 9144
[4] = test system: Bacillus subtilis ATCC 6633
[5] = test system: Pseudomonas aeruginosa ATCC 27853
[6] = test system: Staphylococcus aureus ATCC 700699
[7] = test system: Escherichia coli ATCC 25922
[8] = test system: Staphylococcus aureus ATCC 29213
[9] = test system: Staphylococcus aureus ATCC 33591
[10] = test system: Klebsiella pneumoniae ATCC 700603
[11] = test system: Staphylococcus aureus ATCC 25923
[12] = test system: Enterococcus faecalis 981
Candida glabrata 090902 = test system: Candida glabrata 090902
[13] = test system: Nocardia asteroides 201118
Candida albicans SC5314 = test system: Candida albicans SC5314
Candida krusei ATCC 6258 = test system: Candida krusei ATCC 6258
[14] = test system: Candida albicans ATCC 90028
[15] = test system: Candida parapsilosis ATCC 22019

| SMILES | MIC [1] | MIC [2] | MIC [3] | MIC [5] | MIC [6] | MIC [7] | MIC [8] | MIC [9] | MIC [10] | also measured |
| --- | --- | --- | --- | --- | --- | --- | --- | --- | --- | --- |
| CC[C@H](C)[C@H](NC(=O)[C@H](CCCN=C(N)N)NC(=O)[C@@H](NC(=O)[C@@H](NC(=O)[C@@H]1CCCN1C(=O)[C@@H](NC(=O)[C@@H](NC(=O)[C@@H](NC(=O)[C@@H]1CCCN1C(=O)CNC(=O)[C@H](Cc1ccc(O)cc1)NC(=O)[C@H](CCCCN)NC(=O)[C@H](CCCCN)NC(=O)[C@H](Cc1c[nH]c2ccccc12)NC(=O)[C@H](C)NC(=O)[C@H](CCCN=C(N)N)NC(=O)[C@H](CC(C)C)NC(=O)[C@H](C)NC(=O)[C@H](CCCCN)NC(=O)[C@H](CCCN=C(N)N)NC(=O)CNC(=O)[C@H](CC(C)C)NC(=O)[C@H](CO)NC(=O)[C@H](CCCN=C(N)N)NC(=O)[C@H](CC(C)C)NC(=O)CNC(=O)CN)[C@@H](C)CC)[C@@H](C)CC)C(C)C)[C@@H](C)CC)[C@@H](C)CC)C(N)=O [GGLRSLGRKALRAWKKYGPIIVPIIRI] | 2.6 µM (≈ 7.88 µg/mL) | 2.3 µM (≈ 6.97 µg/mL) | 3.2 µM (≈ 9.7 µg/mL) | – | – | – | – | – | – | MIC [4]: 1.5 µM (≈ 4.55 µg/mL) |
| CC[C@H](C)[C@H](NC(=O)[C@H](CC(=O)O)NC(=O)[C@H](CCCCN)NC(=O)[C@H](C)NC(=O)[C@H](C)NC(=O)CNC(=O)[C@H](CCCCN)NC(=O)[C@H](CC(C)C)NC(=O)[C@@H](NC(=O)[C@H](CC(=O)O)NC(=O)[C@@H](NC(=O)[C@@H](NC(=O)[C@H](C)N)C(C)C)C(C)C)[C@@H](C)CC)C(=O)N[C@@H](C)C(=O)NCC(=O)N[C@@H](Cc1cnc[nH]1)C(=O)N[C@@H](CC(C)C)C(=O)N[C@@H](C)C(=O)N[C@@H](CO)C(=O)N[C@@H](CCCCN)C(=O)N[C@H](C(=O)N[C@@H](CCSC)C(=O)N[C@@H](CC(N)=O)C(=O)N[C@@H](CCCCN)C(=O)N[C@@H](CC(C)C)C(N)=O)C(C)C [AVVDILKGAAKDIAGHLASKVMNKL] | – | – | – | > 100 µM | ≥ 100 µM | > 100 µM | > 100 µM | ≥ 100 µM | > 100 µM | – |
| CC[C@H](C)[C@H](NC(=O)[C@@H](NC(=O)[C@@H]1CCCN1C(=O)[C@H](CO)NC(=O)[C@H](CC(C)C)NC(=O)[C@H](CCCCN)NC(=O)[C@H](CCCCN)NC(=O)[C@H](Cc1ccccc1)NC(=O)[C@H](CC(C)C)NC(=O)[C@H](CCCCN)NC(=O)[C@H](CCCCN)NC(=O)[C@H](C)NC(=O)[C@H](CCCCN)NC(=O)[C@H](CCCCN)NC(=O)[C@H](CCCN=C(N)N)NC(=O)[C@H](Cc1ccccc1)NC(=O)[C@H](CCCN=C(N)N)NC(=O)[C@H](CCCCN)NC(=O)[C@H](C)NC(=O)[C@H](CCCN=C(N)N)NC(=O)CN)C(C)C)C(=O)N1CCC[C@H]1C(=O)N[C@@H](CC(C)C)C(=O)N[C@@H](CC(C)C)C(=O)N[C@@H](Cc1cnc[nH]1)C(=O)N[C@@H](CC(C)C)C(N)=O [GRAKRFRKKAKKLFKKLSPVIPLLHL] | 2.9 µM (≈ 8.91 µg/mL) | 2.9 µM and 7.3 µM | 2.7 µM (≈ 8.3 µg/mL) | – | – | – | – | – | – | – |
| CC(C)C[C@H](NC(=O)[C@H](CC(C)C)NC(=O)CNC(=O)[C@H](CO)NC(=O)[C@H](CC(C)C)NC(=O)[C@H](CC(C)C)NC(=O)[C@H](CCCCN)NC(=O)CNC(=O)[C@@H](NC(=O)[C@H](Cc1ccccc1)NC(=O)[C@@H]1CCCN1C(=O)[C@H](CC(C)C)NC(=O)[C@@H](N)Cc1ccccc1)C(C)C)C(N)=O [FLPFVGKLLSGLL] | – | – | – | – | – | – | – | – | – | MIC [11]: 12.5 µM (≈ 17.5 µg/mL); MIC [12]: 25 µM (≈ 35.1 µg/mL); MIC (Candida glabrata 090902): ≥ 100 µM; MIC [13]: 12.5 µM (≈ 17.5 µg/mL) |
| CC[C@H](C)[C@H](NC(=O)[C@@H](NC(=O)CN)C(C)C)C(=O)N[C@@H](CCCCN)C(=O)N[C@@H](C)C(=O)N[C@@H](C)C(=O)N[C@@H](CCCCN)C(=O)N[C@@H](CCCCN)C(=O)N[C@H](C(=O)N[C@H](C(=O)N[C@@H](CCCCN)C(=O)N[C@H](C(=O)N[C@@H](CC(C)C)C(=O)N[C@@H](CCCCN)C(=O)N[C@@H](CCCCN)C(=O)N[C@@H](CC(C)C)C(=O)N[C@@H](Cc1ccccc1)C(N)=O)C(C)C)C(C)C)C(C)C [GVIKAAKKVVKVLKKLF] | – | – | – | – | – | – | – | – | – | MIC (Candida albicans SC5314): 17.1 µM (≈ 32 µg/mL); MIC (Candida krusei ATCC 6258): 17.1 µM (≈ 32 µg/mL); MIC [14]: ≥ 34.2 µM; MIC [15]: 8.56 µM (≈ 16 µg/mL) |
| CC[C@H](C)[C@H](NC(=O)[C@@H](NC(=O)CN)C(C)C)C(=O)N[C@@H](CCCCN)C(=O)N[C@@H](C)C(=O)N[C@@H](C)C(=O)N[C@@H](CCCCN)C(=O)N[C@@H](CCCCN)C(=O)N[C@H](C(=O)N[C@H](C(=O)N[C@@H](CCCCN)C(=O)N[C@H](C(=O)N[C@@H](CC(C)C)C(=O)N[C@@H](CCCCN)C(=O)N[C@@H](CC(N)=O)C(=O)N[C@@H](CC(C)C)C(=O)N[C@@H](Cc1ccccc1)C(N)=O)C(C)C)C(C)C)C(C)C [GVIKAAKKVVKVLKNLF] | – | – | – | – | – | – | – | – | – | MIC (Candida albicans SC5314): 17.2 µM (≈ 32 µg/mL); MIC (Candida krusei ATCC 6258): 17.2 µM (≈ 32 µg/mL); MIC [14]: ≥ 34.5 µM; MIC [15]: 17.2 µM (≈ 32 µg/mL) |

Further lines, with some results ahead:

| MIC [1] | MIC [2] | MIC [3] | MIC [5] | MIC [6] | MIC [7] | MIC [8] | MIC [9] | MIC [10] | SMILES | also measured |
| --- | --- | --- | --- | --- | --- | --- | --- | --- | --- | --- |
| 2.9 µM (≈ 9.13 µg/mL) | 3.2 µM and 7.4 µM | 2.8 µM (≈ 8.82 µg/mL) | – | – | – | – | – | – | CC[C@H](C)[C@H](NC(=O)[C@@H](NC(=O)[C@@H]1CCCN1C(=O)[C@H](CO)NC(=O)[C@H](CC(C)C)NC(=O)[C@H](CCCCN)NC(=O)[C@H](CCCCN)NC(=O)[C@H](Cc1ccccc1)NC(=O)[C@H](CC(C)C)NC(=O)[C@H](CCCCN)NC(=O)[C@H](CCCCN)NC(=O)[C@H](C)NC(=O)[C@H](CCCCN)NC(=O)[C@H](CCCCN)NC(=O)[C@H](CCCN=C(N)N)NC(=O)[C@H](Cc1ccccc1)NC(=O)[C@H](CCCN=C(N)N)NC(=O)[C@H](CCCCN)NC(=O)[C@H](Cc1ccccc1)NC(=O)[C@H](CCCN=C(N)N)NC(=O)CN)C(C)C)C(=O)N1CCC[C@H]1C(=O)N[C@@H](CC(C)C)C(=O)N[C@@H](CC(C)C)C(=O)N[C@@H](Cc1cnc[nH]1)C(=O)N[C@@H](CC(C)C)C(N)=O [GRFKRFRKKAKKLFKKLSPVIPLLHL] | – |
| – | – | – | 100 µM (≈ 253 µg/mL) | ≥ 100 µM | 25 µM (≈ 63.3 µg/mL) | > 100 µM | ≥ 100 µM | 100 µM (≈ 253 µg/mL) | CC[C@H](C)[C@H](NC(=O)[C@H](CC(=O)O)NC(=O)[C@H](CCCCN)NC(=O)[C@H](C)NC(=O)[C@H](C)NC(=O)CNC(=O)[C@H](CCCCN)NC(=O)[C@H](CC(C)C)NC(=O)[C@@H](NC(=O)[C@H](CC(=O)O)NC(=O)[C@@H](NC(=O)[C@@H](NC(=O)CN)C(C)C)C(C)C)[C@@H](C)CC)C(=O)N[C@@H](C)C(=O)NCC(=O)N[C@@H](Cc1cnc[nH]1)C(=O)N[C@@H](CC(C)C)C(=O)N[C@@H](C)C(=O)N[C@@H](C)C(=O)N[C@@H](CCCCN)C(=O)N[C@H](C(=O)N[C@@H](CCSC)C(=O)N[C@@H](CC(N)=O)C(=O)N[C@@H](CCCCN)C(=O)N[C@@H](CC(C)C)C(N)=O)C(C)C [GVVDILKGAAKDIAGHLAAKVMNKL] | – |
| – | – | – | 50 µM (≈ 125 µg/mL) | ≥ 50 µM | 3.12 µM (≈ 7.81 µg/mL) | 100 µM (≈ 250 µg/mL) | 25 µM (≈ 62.6 µg/mL) | 25 µM (≈ 62.6 µg/mL) | CC[C@H](C)[C@H](NC(=O)[C@H](C)NC(=O)[C@H](CCCCN)NC(=O)[C@H](C)NC(=O)[C@H](C)NC(=O)CNC(=O)[C@H](CCCCN)NC(=O)[C@H](CC(C)C)NC(=O)[C@@H](NC(=O)[C@H](CC(=O)O)NC(=O)[C@@H](NC(=O)[C@@H](NC(=O)CN)C(C)C)C(C)C)[C@@H](C)CC)C(=O)N[C@@H](C)C(=O)NCC(=O)N[C@@H](Cc1cnc[nH]1)C(=O)N[C@@H](CC(C)C)C(=O)N[C@@H](C)C(=O)N[C@@H](CO)C(=O)N[C@@H](CCCCN)C(=O)N[C@H](C(=O)N[C@@H](CCSC)C(=O)N[C@@H](CC(N)=O)C(=O)N[C@@H](CCCCN)C(=O)N[C@@H](CC(C)C)C(N)=O)C(C)C [GVVDILKGAAKAIAGHLASKVMNKL] | – |
